From ChEMBL document CHEMBL4190257, “Discovery of phenylsulfonyl acetic acid derivatives with improved efficacy and safety as potent free fatty acid receptor 1 agonists for the treatment of type 2 diabetes” (Eur J Med Chem, 2017) come the findings set out here.

In series [1] the target is T1, Free fatty acid receptor 1 (Homo sapiens, UniProt O14842). Kind of series: Agonist activity at human FFA1 receptor expressed in CHO cells assessed as increase in intracellular calcium flux at 10 uM by Fluo 4AM dye-based FLIPR assay relative to TAK-875. It is filed as functional, cell-based. (Calcium flux is commonly read through the fluorescence of an indicator in the cells.)
T1 sequence (O14842 whole entry): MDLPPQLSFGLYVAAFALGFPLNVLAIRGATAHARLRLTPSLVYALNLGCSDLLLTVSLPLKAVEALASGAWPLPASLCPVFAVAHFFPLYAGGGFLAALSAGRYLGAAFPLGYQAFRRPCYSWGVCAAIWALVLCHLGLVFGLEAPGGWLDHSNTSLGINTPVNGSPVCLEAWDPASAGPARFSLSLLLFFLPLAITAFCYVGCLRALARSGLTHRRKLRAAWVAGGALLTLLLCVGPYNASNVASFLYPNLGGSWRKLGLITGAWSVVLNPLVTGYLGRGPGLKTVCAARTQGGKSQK

The target in series [2] is T1, Free fatty acid receptor 1. Kind of series: Agonist activity at human FFA1 receptor expressed in CHO cells assessed as increase in intracellular calcium flux by Fluo 4AM dye-based FLIPR assay. It is filed as functional, cell-based.
A short description of series [3]: Octanol/phosphate buffer distribution coefficient, log D of the compound at 100 uM at pH 7.4 after 24 hrs by shake flask method. In kind it is physicochemical.
In the next series the test system is HepG2. Nature of the series: Apoptotic cytotoxicity in human HepG2 cells assessed as caspase-3/7 activity at 30 uM after 24 hrs by caspase-glo-3/7 assay relative to staurosporine. In kind it is cell-based. The conditions noted are these: hepg2, 24 h.
A short description of series [4]: Cmax in fasted Sprague-Dawley rat at 10 mg/kg, po administered as single dose measured up to 24 hrs post dose by LC-PDA-MS/MS analysis. It is filed as ADME, organism-based. Details: dose 10 mg/kg, route oral. As to conditions: in vivo.
Series [5] in a line: Clearance in fasted Sprague-Dawley rat at 10 mg/kg, po administered as single dose measured up to 24 hrs post dose by LC-PDA-MS/MS analysis. It is filed as ADME, organism-based. As to conditions: in vivo.
Series [6] in a line: AUC (0 to 24 hrs) in fasted Sprague-Dawley rat at 10 mg/kg, po administered as single dose measured up to 24 hrs post dose by LC-PDA-MS/MS analysis. In kind it is ADME, organism-based. Details: time < 24 hr, dose 10 mg/kg, route oral. The conditions noted are these: in vivo.
Series [7] is described as follows: Half life in fasted Sprague-Dawley rat at 10 mg/kg, po administered as single dose measured up to 24 hrs post dose by LC-PDA-MS/MS analysis. The conditions noted are these: in vivo. It is filed as ADME, organism-based.
Series [8] in a line: Drug level in Sprague-Dawley rat plasma treated with 2-((4-((2'-chloro-[1,1'-biphenyl]-3-yl)methoxy)phenyl)sulfonyl)acetic acid at 10 mg/kg, po measured up to 24 hrs post dose by LC-PDA-MS/MS analysis. In kind it is ADME, organism-based. The conditions noted are these: in vivo.

SMILES strings stand for the structures. Where only a bound is given, the exact number is not on record here.

For orientation: EC50 means the concentration that produces a half-maximal response. Take `N#Cc1ccccc1-c1cccc(COc2ccc(S(=O)(=O)CC(=O)O)cc2)c1`: the Efficacy in [1] stood at 78%. For the same compound, the EC50 in series [2] is 457 nM.
For the compound `Cc1ccc(C)n1-c1cccc(COc2ccc(S(=O)(=O)CC(=O)O)cc2)c1`, the Efficacy in [1] was 85%. Further, the EC50 in series [2] was 129 nM.
For `Cc1cc(OCCCS(C)(=O)=O)cc(C)c1-c1cccc(COc2ccc(S(=O)(=O)CC(=O)O)cc2)c1`, the Efficacy in series [1] was found to be 83%. The EC50 in [2] is 170 nM.
For `Cc1ccc(-c2c(C)noc2C)cc1COc1ccc(S(=O)(=O)CC(=O)O)cc1`, in that order: 73% and 427 nM.
The logD is the decadic logarithm of the distribution of all forms, ionised or not, between an organic phase and buffer at a given pH. A high value points to higher lipophilicity. Consider `CCOc1ccc(-c2cccc(COc3ccc(S(=O)(=O)CC(=O)O)cc3)c2)c(Cl)c1`, for which the logD at 24 h, 100 µM in [3] was found to be 3.12. Moreover, the Efficacy in series [1] stood at 105%. In addition, in series [2], the EC50 was 51.3 nM. Besides, the Activity in the series on HepG2 turned out to be 26.9%.
As for `CO/N=C1\CC(CC(=O)O)c2ccc(OCc3cccc(-c4c(C)cc(OC)cc4C)c3)cc21` (configuration not stated), the EC50 in [2] is more than 1000 nM.
For `Cc1noc(C)c1-c1cccc(COc2ccc(S(=O)(=O)CC(=O)O)cc2)c1`, the Efficacy in series [1] worked out at 82%. Also, the EC50 in series [2] is 269 nM.
For `Cc1nc(-c2ccc(F)cc2)sc1COc1ccc(S(=O)(=O)CC(=O)O)cc1`, the Efficacy in [1] came to 92%. In addition, the EC50 in series [2] was 191 nM.
`CCC(C(=O)O)S(=O)(=O)c1ccc(OCc2cccc(-c3c(C)cc(OC)cc3C)c2)cc1` (configuration not stated): the EC50 in [2] is more than 1000 nM.
The compound `COc1cc(C)c(-c2cccc(COc3ccc(S(=O)(=O)CC(=O)O)cc3)c2)c(C)c1` had a logD at 24 h, 100 µM in [3] of 2.45. The Efficacy in series [1] came to 106%. The EC50 in series [2] is 57.5 nM. For the same compound, the Activity in the series on HepG2 is recorded as -2.4%.
As for `O=C(O)CS(=O)(=O)c1ccc(OCc2cccc(Oc3ccccc3)c2)cc1`, the Efficacy in [1] turned out to be 101%. In series [2], the EC50 was 97.7 nM.
The corresponding values for `Cc1noc(C)c1-c1cc(COc2ccc(S(=O)(=O)CC(=O)O)cc2)ccc1Cl` are 81% and 214 nM.
Regarding `Cc1ccccc1-c1ccc(COc2cccc(S(=O)(=O)CC(=O)O)c2)cc1`, the concentration giving a half-maximal response (EC50) in [2] was more than 1000 nM.
For orientation: Cmax means the highest concentration seen after dosing. As usually defined, the CL/F is the apparent clearance, not corrected for the fraction that reaches the circulation. Broadly, the AUC(0-t) is the area under the concentration-time curve up to a stated or last time point. A high value points to high exposure. In general, half-life refers to how long it takes for the measured level to halve. The low end stands for fast loss, the high end for slow loss. In turn, `Cc1cc(OCCCS(C)(=O)=O)cc(C)c1-c1cccc(COc2ccc(CCC(=O)O)cc2)c1` yielded a logD at 24 h, 100 µM in series [3] of 3.75. For the same compound, the peak level in [4] (Cmax) was 517 ng/mL. In addition, in [1], the Efficacy worked out at 116%. This compound also showed a CL/F in series [5] of 118 mL/min/kg. The EC50 in series [2] is 15.5 nM. In [6], this compound displayed an AUC(0-t) at 24 h of 1020 ng·h/mL. Moreover, the half-life in series [7] is 65.4 min. Also, the Activity in the series with HepG2 turned out to be 46.8%.
Turning to `COc1cc(C)c(-c2cccc(COc3ccc4c(c3)S(=O)(=O)CC4CC(=O)O)c2)c(C)c1` (configuration not stated), the EC50 in series [2] was more than 1000 nM.
For `Cc1nc(-c2cccc(Cl)c2)sc1COc1ccc(S(=O)(=O)CC(=O)O)cc1`, the Efficacy in series [1] amounted to 85%. Also, in series [2], the EC50 was 251 nM.
For `COc1cc(C)c(-c2cccc(COc3ccc(S(=O)(=O)C4(C(=O)O)CC4)cc3)c2)c(C)c1`, the EC50 in series [2] is more than 1000 nM.
For the compound `COCCOc1cc(C)c(-c2cccc(COc3ccc(S(=O)(=O)CC(=O)O)cc3)c2)c(C)c1`, in [1], the Efficacy came to 95%. In addition, in series [2], the EC50 was 126 nM.
For the compound `COc1cc(C)c(-c2cccc(COc3ccc4c(c3)SCC4CC(=O)O)c2)c(C)c1` (configuration not stated), in [1], the Efficacy was determined as 98%. Besides, the EC50 in series [2] was 123 nM.
The corresponding values for `Cc1noc(C)c1-c1cccc(COc2ccc(S(=O)(=O)CC(=O)O)cc2)c1C` are 77% and 363 nM.
`CCOc1cc(C)c(-c2cccc(COc3ccc(S(=O)(=O)CC(=O)O)cc3)c2)c(C)c1` gave a logD at 24 h, 100 µM in series [3] of 2.86. Besides, the Efficacy in [1] came out at 107%. The EC50 in [2] is 63.1 nM. For the same compound, in the series on HepG2, the Activity was 6.7%.
Consider `COc1cc(C)c(-c2cccc(COc3ccc4c(c3)C(O)CC4CC(=O)O)c2)c(C)c1` (configuration not stated), for which the Efficacy in series [1] is 83%. Moreover, the half-maximal effective concentration (EC50) in [2] is 550 nM.
As to `O=C(CS(=O)(=O)c1ccc(OCc2cccc(-c3ccccc3Cl)c2)cc1)NCCS(=O)(=O)O`, in series [8], the Drug metabolism result is recorded as “Metabolite_Detected”.
`Cc1cccc(C)c1-c1cccc(COc2ccc(SCC(=O)O)cc2)c1`: the logD at 24 h, 100 µM in series [3] is 3.82. Further, the Efficacy in [1] came out at 95%. Besides, the EC50 in series [2] was 195 nM.
The corresponding values for `CC(C)c1ccccc1-c1cccc(COc2ccc(S(=O)(=O)CC(=O)O)cc2)c1` are 3.18, 101% and 74.1 nM.
Turning to `O=C(O)c1cccc(-c2ccccc2Cl)c1`, the Drug metabolism result in [8] is “Metabolite_Detected”.
With `Cc1nc(-c2cccc(F)c2)sc1COc1ccc(S(=O)(=O)CC(=O)O)cc1`, the Efficacy in [1] came out at 84%. Also, the EC50 in [2] was 275 nM.
The corresponding values for `Cc1nc(-c2ccccc2F)sc1COc1ccc(S(=O)(=O)CC(=O)O)cc1` are 75% and 550 nM.
For `COc1ccccc1-c1cccc(COc2ccc(S(=O)(=O)CC(=O)O)cc2)c1`, in that order: 96% and 195 nM.
As for `CO/N=C(\COc1ccc(COc2ccc(S(=O)(=O)CC(=O)O)cc2)cc1)c1ccccc1`, in series [1], the Efficacy was 92%. Besides, in series [2], the EC50 is 178 nM.
For `Cc1cc(OCC2CC2)cc(C)c1-c1cccc(COc2ccc(S(=O)(=O)CC(=O)O)cc2)c1`, the logD at 24 h, 100 µM in [3] was 3.46. Besides, the Efficacy in [1] is 98%. Besides, in series [2], the EC50 is 79.4 nM. In addition, in the series with HepG2, the Activity came to 26.3%.
Regarding `O=C(O)CS(=O)(=O)c1ccc(OCc2cccc(-c3ccccc3)c2)cc1`, in series [3], the logD at 24 h, 100 µM is 2.13. In addition, the Efficacy in [1] is 94%. Moreover, the EC50 in [2] is 288 nM. Moreover, the Activity in the series with HepG2 is on record as -1.9%.
The compound `O=C(O)CS(=O)(=O)c1ccc(OCc2cccc(-c3ccccc3C(F)(F)F)c2)cc1` registered a logD at 24 h, 100 µM in [3] of 2.95. Also, in series [1], the Efficacy is 108%. Further, the EC50 in series [2] was 52.5 nM. Further, the Activity with HepG2 is 12.5%.
For `Cc1ccccc1-c1cccc(COc2ccc(S(=O)(=O)CC(=O)O)cc2)c1`, in that order: 2.35, 113%, 46.8 nM and -2.7%.
`O=C(O)CS(=O)(=O)c1ccc(OCc2cccc(-c3ccccc3F)c2)cc1`: the Efficacy in [1] came to 97%. Moreover, in [2], the EC50 is 257 nM.
For `Cc1nc(-c2ccccc2)sc1COc1ccc(S(=O)(=O)CC(=O)O)cc1`, in that order: 91% and 331 nM.
`Cc1cc(OCC(C)C)cc(C)c1-c1cccc(COc2ccc(S(=O)(=O)CC(=O)O)cc2)c1`: the logD at 24 h, 100 µM in series [3] worked out at 3.94. The Efficacy in series [1] stood at 96%. The EC50 in series [2] is 95.5 nM.
As to `Cc1cccc(-c2nc(C)c(COc3ccc(S(=O)(=O)CC(=O)O)cc3)s2)c1`, the Efficacy in [1] was 82%. In addition, the EC50 in series [2] is 214 nM.
With `Cc1ccc(-c2cccc(COc3ccc(S(=O)(=O)CC(=O)O)cc3)c2)c(Cl)c1`, the logD at 24 h, 100 µM in series [3] was determined as 3.05. For the same compound, the Efficacy in [1] was found to be 112%. Further, in series [2], the EC50 was 36.3 nM. Moreover, in the series with HepG2, the Activity is 17.6%.
On to `COc1cc(C)c(-c2cccc(COc3ccc(S(=O)(=O)C(C)(C)C(=O)O)cc3)c2)c(C)c1`, for which the EC50 in series [2] is more than 1000 nM.
For the compound `COc1cc(C)c(-c2cccc(COc3ccc(S(=O)(=O)C(C)C(=O)O)cc3)c2)c(C)c1` (configuration not stated), the EC50 in series [2] is more than 1000 nM.
For the compound `Cc1noc(C)c1-c1ccc(Cl)c(COc2ccc(S(=O)(=O)CC(=O)O)cc2)c1`, the Efficacy in series [1] came out at 84%. The EC50 in series [2] is 234 nM.
Turning to `O=C(CS(=O)(=O)c1ccc(OCc2cccc(-c3ccccc3Cl)c2)cc1)O[C@@H]1O[C@H](CO)[C@@H](O)[C@H](O)[C@H]1O`, in series [8], the Drug metabolism result is given as “Metabolite_Detected”.
In the case of `O=C(O)CS(=O)(=O)c1cccc(OCc2ccc(-c3ccccc3)cc2)c1`, the EC50 in series [2] is more than 1000 nM.
As for `COc1cc(C)c(-c2cccc(COc3ccc4c(c3)C(=O)CC4CC(=O)O)c2)c(C)c1` (configuration not stated), the Efficacy in [1] is 87%. The EC50 in series [2] is 234 nM.
`Cc1cccc(C)c1-c1cccc(COc2ccc(S(=O)(=O)CC(=O)O)cc2)c1` had a logD at 24 h, 100 µM in series [3] of 2.49. Besides, the Efficacy in [1] was found to be 103%. Also, the EC50 in series [2] was 66.1 nM. Further, the Activity in the series on HepG2 is reported as -1.5%.
The corresponding values for `CCCOc1cc(C)c(-c2cccc(COc3ccc(S(=O)(=O)CC(=O)O)cc3)c2)c(C)c1` are 3.58, 104%, 69.2 nM and 29.5%.
